Assay results as given in US8569504B2, “Imidazopyridine compound” (Ono Pharmaceutical Co., Ltd., priority 2009, dated 2013).
pIC50: −log10 of the molar value.

Experiments:
[1] = Measurement of cell toxicity using HepG2 human liver cancer cell lines (ATP, Celltiter Glo); assay type: cell-based; conditions: human, HepG2 cells; 24 hours of exposure, ATP concentration
Experimental: (§1) The cells were then exposed to the compound of the present invention and the comparative compounds for 24 hours. The compound of the present invention and the comparative compounds were dissolved with DMSO, and then diluted 100 times with culture liquid comprising L-glutamine, non-essential amino acids and 1% bovine fetal serum which were added to minimum essential medium (MEM). […] The cells were dissolved with the assay buffer in the measurement kit, and the ATP concentration released from the cells was measured based on luciferin-luciferase enzyme activity. Light emission was measured with a SpectraMax plate reader (Molecular Device).

[2] = tested on: HepG2 human liver cancer cell lines; experiment: as above; assay type: cell-based; conditions: 24 hours of exposure, ATP concentration; concentration that produced toxicity in 10% of cells
Experimental: as §1

Human chymase = molecular target: T1, Human chymase (Homo sapiens, UniProt P23946); experiment: Measurement of human chymase enzyme inhibitory activity; assay type: biochemical; conditions: for IC90: concentration at which 90% of enzyme activity was inhibited; for pIC50: peptide substrate N-Succinyl-Ala-Ala-Pro-Phe-p-nitroanilide 2.5 mmol/L, 37° C., pH 7.6
T1 construct: purchased East Coast Biologics
T1 sequence (P23946 22-247): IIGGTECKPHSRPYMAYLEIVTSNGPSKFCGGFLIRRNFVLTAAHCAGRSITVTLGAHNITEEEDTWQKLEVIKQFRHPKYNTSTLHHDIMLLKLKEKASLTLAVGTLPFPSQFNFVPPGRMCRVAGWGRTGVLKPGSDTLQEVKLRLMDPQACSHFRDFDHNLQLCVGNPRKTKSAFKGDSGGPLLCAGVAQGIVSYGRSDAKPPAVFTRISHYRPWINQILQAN
Experimental: Human Chymase Pure (hereunder called chymase; East Coast Biologics) was stored in a freezer at −20° C., and diluted with distilled water immediately prior to use. N-Succinyl-Ala-Ala-Pro-Phe-p-nitroanilide (hereunder called the peptide substrate; Sigma Aldrich) was prepared with dimethylsulfoxide (hereunder called DMSO) as a 50 mmol/L solution, and stored in a freezer at −20° C. The compound of the present invention and the comparative compounds were prepared with DMSO as 10 mmol/L solutions, and stored in a freezer at −20° C. On the day of measurement, the solutions of the compound of the present invention and the comparative compound were diluted in stages with 50% DMSO to 10 times concentration of the final target concentration, and the solution were prepared. 10 μL solutions of the compounds of the present invention and the comparative compounds, and 80 μL solution of a peptide substrate (final concentration 2.5 mmol/L) diluted with assay buffer (50 mmol/L Tris-HCl, 150 mmol/L NaCl, 50 units/mL heparin (pH 7.6)) were added to a 96-well microplate, incubated for 10 minutes at 37° C. 10 μL of chymase was added to a final concentration of 0.1 μg/L to initiate enzyme activity. Absorbance at 405 nm was monitored for 5 minutes at 30-second intervals, and the reaction speed (Δm O.D./minute) was measured. 10 μL of 50% DMSO was added to the control well and blank well in place of the solutions of the compound of the present invention and the comparative compound. Moreover, 10 μL of distilled water was added to the blank well in place of chymase. Given 100% as the value of the control well reaction speed minus the blank well reaction speed, the reaction speeds of the wells containing the compound of the present invention and the comparative compounds were calculated as percentages.

[3] = Stability experiment using human liver microsomes; assay type: in vitro ADME; conditions: 5 μmol/L, 0.5 mg/mL human liver microsomes with NADPH, 15 minutes, 37° C.
Experimental: 5 μL of the compound of the present invention and each comparative compound (10 mmol/L DMSO solution) was diluted with 195 μL of 50% acetonitrile aqueous solution to prepare 250 μmol/L solutions of the compound of the present invention and comparative compound. 245 μL of 0.5 mg/mL human liver microsomes (0.1 mol/L pH 7.4 phosphate buffer solution) containing NADPH Co factor (NADPH Regenerating System Solution A (BD Bioscience) and NADPH Regenerating System Solution B (BD Bioscience), each diluted 10 times and 50 times with 0.1 mol/L pH 7.4 phosphate buffer (NADP+2.6 mmol/L)) were added to a reaction container that had been warmed in advance to 37° C. in a water bath, and pre-incubated for 5 minutes, after which 5 μL solution of the compound of the present invention and the comparative compound was added to initiate a reaction (final concentration 5 μmol/L). Immediately after initiation 20 μL was collected, and 20 μL was added to 180 μL of acetonitrile containing I.S. (internal standard (warfarin)) to terminate the reaction. 180 μL of 50% acetonitrile aqueous solution was added to this 20 μL on a plate with a protein exclusion filter, stirred and filtered by suction. The filtrate was used as a standard sample. After incubating the reaction solution for 15 minutes, 20 μL of a liver microsome solution was collected, and added to 180 μL of acetonitrile containing I.S. (internal standard (warfarin)) in order to terminate the reaction. 180 μL of 50% acetonitrile aqueous solution was added to this 20 μL on a plate with a protein exclusion filter, stirred and filtered by suction. The filtrate was used as a reaction sample. The survival ratio (%) was calculated by injecting 5 μL of sample solution into a LC-MS/MS (Thermo Scientific Discovery Max), dividing the peak area ratio of the reaction sample (the compound of the present invention and the comparative compound/I.S.) by the peak area ratio of the standard sample, and multiplying by 100.

For `Cc1cccc2scc(Cn3c(SCCCC(=O)O)nc4ccccc43)c12` [Comparative Compound 1, 4-(1-((4-methylbenzothiophen-3-yl)methyl)benzimidazol-2-ylthio)butanoic acid, reference compound], the IC50 at 24 h [1] was 81000 nM and the “Cell toxicity in HepG2 human liver cancer cell lines IC10” value (“Cell toxicity” below) [2] was 45000 nM.

With `Cc1cccc2scc(Cc3c(SCCCC(=O)O)nc4ccccn34)c12` [Comparative Compound 2, 4-[3-(4-methyl-benzo[b]thiophen-3-ylmethyl)-imidazo[1,2-a]pyridin-2-ylsulfanyl]butanoic acid, reference compound] the IC90 (Human chymase) was 2800 nM, the pIC50 (Human chymase) was 6.47 and the IC50 at 24 h [1] was 219000 nM. For the same compound, the “Cell toxicity” value [2] was 66000 nM.

Work on `O=C(O)c1ccccc1Sc1nc2ccccc2n1Cc1cccc2ccccc12` [Comparative Compound 3, 2-{[1-(1-naphthylmethyl)-1H-benzimidazol-2-yl]thio}benzoic acid, reference compound] yielded an IC90 (Human chymase) of 1600 nM, a pIC50 (Human chymase) of 6.89 and an IC50 at 24 h [1] of 40000 nM. For the same compound, the “Cell toxicity” value [2] was 29000 nM.

For `Cc1cccc2c1c(Cn1c(Sc3ccccc3C(=O)O)nc3ccccc31)cn2C` [Comparative Compound 4, 2-([1-[(1,4-dimethyl-1H-indol-3-yl)methyl]-1H-benzimidazol-2-yl]thio)benzoic acid, reference compound], the IC90 (Human chymase) was 790 nM, the pIC50 (Human chymase) was 7.12 and the IC50 at 24 h [1] was 84000 nM. For the same compound, the “Cell toxicity” value [2] was 53000 nM.

Work on `Cc1cccc2[nH]cc(Cc3c(-c4ccc5ccccc5c4C(=O)O)nc4ccccn34)c12` [Example 7, 2-[3-[(4-methyl-1H-indol-3-yl)methyl]imidazo[1,2-a]pyridin-2-yl]-1-naphthoic acid] yielded an IC90 (Human chymase) of 63 nM, a pIC50 (Human chymase) of 9.00 and an IC50 at 24 h [1] of 132000 nM. For the same compound, the “Cell toxicity” value [2] was 58000 nM and the “Human liver Ms stability (survival ratio)” value [3] was 93%.

With `Cc1ccc2nc(-c3ccccc3C(=O)O)c(Cc3cn(C)c4cccc(C)c34)n2c1` [Example 11, 2-{3-[(1,4-dimethyl-1H-indol-3-yl)methyl]-6-methylimidazo[1,2-a]pyridin-2-yl}benzoic acid] the IC90 (Human chymase) was 270 nM, the pIC50 (Human chymase) was 7.64 and the IC50 at 24 h [1] was > 400000 nM. The “Cell toxicity” value [2] was 248000 nM and the “Human liver Ms stability (survival ratio)” value [3] was 86%.

Compound `Cc1cccc2c1c(Cc1c(-c3ccccc3C(=O)O)nc3ccccn13)cn2C` [Example 13, 2-{3-[(1,4-dimethyl-1H-indol-3-yl)methyl]imidazo[1,2-a]pyridin-2-yl}benzoic acid] has an IC90 (Human chymase) of 200 nM, a pIC50 (Human chymase) of 7.55 and an IC50 at 24 h [1] of 424000 nM. For the same compound, the “Cell toxicity” value [2] was 135000 nM and the “Human liver Ms stability (survival ratio)” value [3] was 93%.

With `CCn1cc(Cc2c(-c3ccccc3C(=O)O)nc3ccccn23)c2c(C)cccc21` [Example 15, 2-{3-[(1-ethyl-4-methyl-1H-indol-3-yl)methyl]imidazo[1,2-a]pyridin-2-yl}benzoic acid] the IC90 (Human chymase) was 240 nM, the pIC50 (Human chymase) was 7.52 and the IC50 at 24 h [1] was 267000 nM. For the same compound, the “Cell toxicity” value [2] was 115000 nM and the “Human liver Ms stability (survival ratio)” value [3] was 87%.

`Cc1cccc2[nH]cc(Cc3c(-c4ccc5ccccc5c4C(=O)O)nc4ccc(F)cn34)c12` [Example 16, 2-{6-fluoro-3-[(4-methyl-1H-indol-3-yl)methyl]imidazo[1,2-a]pyridin-2-yl}-1-naphthoic acid] gave an IC90 (Human chymase) of 6 nM, a pIC50 (Human chymase) of 9.00 and an IC50 at 24 h [1] of 131000 nM. For the same compound, the “Cell toxicity” value [2] was 29000 nM and the “Human liver Ms stability (survival ratio)” value [3] was 88%.

`Cc1c(F)ccc2[nH]cc(Cc3c(-c4ccccc4C(=O)O)nc4ccccn34)c12` [Example 19, 2-{3-[(5-fluoro-4-methyl-1H-indol-3-yl)methyl]imidazo[1,2-a]pyridin-2-yl}benzoic acid] gave an IC90 (Human chymase) of 120 nM, a pIC50 (Human chymase) of 7.96 and an IC50 at 24 h [1] of 247000 nM. For the same compound, the “Cell toxicity” value [2] was 70000 nM and the “Human liver Ms stability (survival ratio)” value [3] was 100%.

With `Cc1cccc2c1c(Cc1c(-c3ccc4ccccc4c3C(=O)O)nc3ccccn13)cn2CCN1CCOCC1` [Example 23-(4), 2-[3-({4-methyl-1-[2-(4-morpholinyl)ethyl]-1H-indol-3-yl}methyl)imidazo[1,2-a]pyridin-2-yl]-1-naphthoic acid] the IC90 (Human chymase) was 8 nM, the pIC50 (Human chymase) was 8.70 and the IC50 at 24 h [1] was 173000 nM. The “Cell toxicity” value [2] was 79000 nM and the “Human liver Ms stability (survival ratio)” value [3] was 100%.
